Key:
SfaA = assay: AMP PPi assay of the putative meta-hydroxylase SfaA expressed in E. coli; assay type: biochemical, Streptomyces sp. A92-308110 (S. flaveolus)
From the text: Traditional phenylalanine/tyrosine/tryptophan hydroxylation systems all rely on an electrophilic substitution reaction to realize hydroxylation in the electron-rich regions of aromatic systems. On the contrary, the meta-hydroxylation of phenylalanine occurs at the relatively electron-poor meta position of phenylalanine. […] The putative meta-hydroxylase, SfaA, was expressed in E. coli and isolated using standard methods.

SfaR = assay: in vitro activity of purified His-tagged SfaR (reduction / reductive carboxylation) on acyl substrates; assay type: biochemical, Streptomyces sp A92-309110 (S. flaveolus)
From the text: To validate the central role of SfaR for unusual building block supply in the proposed pathway, we first inactivated sfaR by in-frame deletion. […] Secondly, we heterologously expressed and purified the N-terminal 6× His-tagged SfaR to near homogeneity for in vitro studies. As expected, in the presence of NADPH and bicarbonate, crotonyl-S-CoA (FIG. 7, 4) was efficiently converted by SfaR to the major product ethylmalonyl-S-CoA (FIG. 7, 5) along with the shunt product butyryl-S-CoA (FIG. 7, 7). […] To exclude the possibility that the reaction directly occurs on the ACP, SfaO was expressed and purified as a N-terminal 6×His-tagged derivative. […] Thirdly, to detect the substrate flexibility of SfaR, we synthesized the 5-carbon substrate pentenyl-S-CoA.

MLR = settings: compared with SFA; cited from earlier work

Molecule: CC(=O)NCCSC(=O)C(N)Cc1ccccc1 (centres unmarked)
- activity of SfaA on the substrate (SfaA): did show activity

Molecule: C/C=C/C(=O)SCCNC(=O)CCNC(=O)[C@H](O)C(C)(C)COP(=O)(O)OP(=O)(O)OC[C@H]1O[C@@H](n2cnc3c(N)ncnc32)[C@H](O)[C@@H]1OP(=O)(O)O [crotonyl-S-CoA]
- Km (SfaR; substrate crotonyl-S-CoA, SfaR, NADPH): 840 µM

Molecule: CC/C=C/C(=O)SCCNC(=O)CCNC(=O)[C@H](O)C(C)(C)COP(=O)(O)OP(=O)(O)OC[C@H]1O[C@@H](n2cnc3c(N)ncnc32)[C@H](O)[C@@H]1OP(=O)(O)O [pentenyl-S-CoA]
- Km (SfaR; pentenyl-S-CoA in reductively producing pentanoyl-S-CoA): 1400 µM

Molecule: N[C@@H](Cc1ccccc1)C(=O)O [phenylalanine]
- activity of SfaA on the substrate (SfaA): no activity

Molecule: sanglifehrin B
- immunosuppressive activity in MLR assays (MLR): higher immunosuppressive activity than SFA
